Source: ChEMBL document CHEMBL1158922, “Antineoplastic agents, 177. Isolation and structure of phyllanthostatin 6” (1990)
≈ marks a conversion by molar mass, not a printed value.

System: P388
Test: Cytotoxicity against mouse P388 cells
Assay type: functional
Conditions: read-out: ED50 (the source's name)

**Q.** With `CC1CO[C@]2(CC1OC(=O)/C=C/c1ccccc1)OC1CC(C(=O)O[C@@H]3O[C@H](CO)[C@@H](O)[C@H](O)[C@H]3O[C@@H]3O[C@H](C)[C@@H](O)[C@H](O)[C@H]3O)CCC1[C@]21CO1` (stereo partly specified) [PHYLLANTHOSTATIN 6] as the molecule, how does the EC50 read?
**A.** 0.35 µg/mL (≈ 0.475 µM)
